Like-named read-outs stand apart in the source and are kept apart here.
Columns and labels:
Full-length human PKCθ = biological target: T1, Full-length human PKCθ (Homo sapiens, UniProt Q04759); experiment: Measurement of human PKCθ enzyme inhibition activity (HTRF KinEASE S1 kit); type: biochemical
T1 construct: Full-length human PKCθ (Carna Biosciences, final 31 ng/mL); purchased Carna Biosciences
Method: Test Method 1: Measurement of Human PKCθ Enzyme Inhibition Activity
The test was carried out using a HTRF® KinEASE™ S1 kit (CIS bio). […] Then, 3 μL of an ATP liquid (final 30 μM) was dispensed therein to carry out an enzyme reaction at room temperature for 1 hour.
Ex represents Compound No. of Examples as described later.

Cytochrome P450 (CYP3A4) = biological target: T2, Cytochrome P450 (CYP3A4) (Homo sapiens, UniProt P08684); experiment: Measurement of cytochrome P450 (CYP3A4) enzyme inhibition activity in human liver microsome (inhibition tests I and II, midazolam substrate); type: in vitro ADME; conditions: for I (%) Remaining Rate I: inhibition test I: 5 μM test compound, 2 μM midazolam, human liver microsome, 37° C. 20 minutes, no preincubation; for II (%) Remaining Rate II: inhibition test II: 5 μM test compound preincubated 30 minutes with human liver microsome and NADPH, then 2 μM midazolam 20 minutes, relative to test I
T2 construct: human liver microsome (0.1 mg protein/mL); from tissue; host or cells: human liver microsomes
Method: Test Method 3: Measurement of Cytochrome P450 (CYP3A4) Enzyme Inhibition Activity i) Inhibition Test I (Calculation of Remaining Rate I)
Using a 96-well plate, 2 μM of a substrate (midazolam), 5 μM of a test compound, and human liver microsome (0.1 mg protein/mL) were incubated at 37° C. for 20 minutes in a total amount of 150 μL of a 100 mM phosphate buffer (pH 7.4) containing 0.1 mM EDTA and 1 mM NADPH. Then, the reaction was stopped by adding 130 μl of an aqueous solution containing 80% acetonitrile. Thereafter, the samples were analyzed by LC/MS/MS, and the remaining rates I were calculated using the following equation 1.
Remaining Rate I(%)=Ai,I/Ao,I×100 (Equation 1)
Ai, I=Amount of produced metabolite after reaction in the presence of the test compound in the inhibition test I Ao, I=Amount of produced metabolite after reaction in the absence of the test compound in the inhibition test I ii) Inhibition Test II (Calculation of Remaining Rate II)
Using a 96-well plate, 5 μM of a test compound and human liver microsome (0.1 mg protein/mL) were incubated at 37° C. for 30 minutes in a total amount of 145 μL of a 100 mM phosphate buffer (pH=7.4) containing 0.1 mM EDTA and 1 mM NADPH. Then, 2 μM of midazolam as the substrate was added thereto at a total amount of 150 μL of and incubated at 37° C. for 20 minutes. After the incubation, the reaction was stopped by adding 130 μL of an aqueous solution containing 80% acetonitrile. Thereafter, the samples were analyzed by LC/MS/MS, and the remaining rate II was calculated using the following equation 2.
Remaining Rate II(%)=Ai,II/Ao,II/(Ai,I/Ao,I)×100 (Equation 2)
Ai, II=Amount of produced metabolite after reaction in the presence of the test compound in the inhibition test II […]=Amount of produced metabolite after reaction in the absence of the test compound in the inhibition test II […]
Ex represents No. of the Example Compounds as described below.

[1] = full-length human PKCθ, ATP 30 μM, HTRF, read-out: IC50 (nM), human PKCθ enzyme inhibition

T1 sequence (Q04759 whole entry): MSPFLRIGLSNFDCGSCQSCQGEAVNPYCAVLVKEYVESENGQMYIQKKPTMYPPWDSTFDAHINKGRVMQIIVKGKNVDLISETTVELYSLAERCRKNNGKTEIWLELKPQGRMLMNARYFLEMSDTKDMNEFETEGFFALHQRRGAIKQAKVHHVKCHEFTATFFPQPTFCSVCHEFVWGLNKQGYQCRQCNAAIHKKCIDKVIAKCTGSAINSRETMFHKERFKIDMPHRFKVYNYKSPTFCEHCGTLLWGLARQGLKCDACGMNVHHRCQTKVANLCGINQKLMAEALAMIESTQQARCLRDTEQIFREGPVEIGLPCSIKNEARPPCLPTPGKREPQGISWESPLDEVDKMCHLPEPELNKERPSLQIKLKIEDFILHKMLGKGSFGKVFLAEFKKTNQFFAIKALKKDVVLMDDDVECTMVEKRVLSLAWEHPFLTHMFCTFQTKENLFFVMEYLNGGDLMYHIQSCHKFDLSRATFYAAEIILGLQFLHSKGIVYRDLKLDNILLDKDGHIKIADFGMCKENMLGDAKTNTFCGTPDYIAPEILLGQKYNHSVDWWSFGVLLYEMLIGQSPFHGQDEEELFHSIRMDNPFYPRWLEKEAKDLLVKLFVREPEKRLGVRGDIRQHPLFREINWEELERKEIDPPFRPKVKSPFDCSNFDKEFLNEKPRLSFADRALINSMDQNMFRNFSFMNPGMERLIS
T2 sequence (P08684 whole entry): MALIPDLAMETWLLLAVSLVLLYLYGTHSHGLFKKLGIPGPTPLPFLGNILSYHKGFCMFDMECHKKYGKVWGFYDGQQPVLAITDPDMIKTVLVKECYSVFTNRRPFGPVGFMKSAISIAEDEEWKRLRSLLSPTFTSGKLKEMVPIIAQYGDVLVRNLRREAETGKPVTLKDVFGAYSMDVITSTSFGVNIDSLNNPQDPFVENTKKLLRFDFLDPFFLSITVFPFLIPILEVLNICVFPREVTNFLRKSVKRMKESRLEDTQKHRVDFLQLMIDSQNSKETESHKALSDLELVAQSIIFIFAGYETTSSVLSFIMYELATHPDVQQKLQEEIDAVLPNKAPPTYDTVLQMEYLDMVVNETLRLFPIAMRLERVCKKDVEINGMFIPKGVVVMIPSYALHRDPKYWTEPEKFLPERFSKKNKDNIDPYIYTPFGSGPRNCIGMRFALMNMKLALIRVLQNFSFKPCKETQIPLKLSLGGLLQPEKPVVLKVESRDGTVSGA

Row | IC50 (Full-length human PKCθ; [1]) [nM] | I (%) Remaining Rate I (Cytochrome P450 (CYP3A4)) [%] | II (%) Remaining Rate II (Cytochrome P450 (CYP3A4)) [%] | Compound | IC50 (Full-length human PKCθ) [nM]
1 | 1.22 | 78 | 84 | C[C@]1(O)CC[C@H](CN[C@@H]2[C@@H]3CC4C[C@H]2C[C@@](CNc2nc(NCc5ccccc5OC(F)F)ncc2C#N)(C4)C3)CC1 (relative stereo) [Example 372] | –
2 | 0.44 | 76 | 99 | CSc1ccccc1CNc1ncc(C#N)c(NC[C@]23CC4C[C@H](C2)[C@@H](N[C@H]2CC[C@H](O)CC2)[C@@H](C4)C3)n1 (relative stereo) [Example 43, rel-4-[({(1R,3S,4R,5R)-4-[(trans-4-hydroxycyclohexyl)amino]adamantan-1-yl]methyl)amino}-2-{[2-(methylsulfanyl)benzyl]amino}pyrimidine-5-carbonitrile] | –
3 | 0.25 | 90 | 92 | N#Cc1cnc(NCc2ccccc2Cl)nc1NC[C@]12CC3C[C@H](C1)[C@@H](NCC1CCNCC1)[C@@H](C3)C2 [Example 321] | –
4 | 3.5 | 75 | 90 | CN([C@H]1CC[C@H](O)CC1)[C@@H]1[C@@H]2CC3C[C@H]1C[C@@](CNc1nc(NCc4ccccc4OC(F)(F)F)ncc1C#N)(C3)C2 [Example 115] | –
5 | 3.9 | 86 | 87 | COc1ccccc1CNc1ncc(C#N)c(NC[C@]23CC4C[C@H](C2)[C@@H](N2CC(CO)(CO)C2)[C@@H](C4)C3)n1 (relative stereo) [Example 196] | –
6 | 0.28 | 95 | 85 | CSc1ccccc1CNc1ncc(C#N)c(NC[C@]23CC4C[C@H](C2)[C@@H](NCC[C@H](O)CO)[C@@H](C4)C3)n1 (relative stereo) [Example 200] | –
7 | 0.36 | 83 | 89 | N#Cc1cnc(NCc2ccccc2Cl)nc1NC[C@]12CC3C[C@H](C1)[C@@H](NC1CCNCC1)[C@@H](C3)C2 [Example 169] | –
8 | 1.4 | 91 | 83 | N#Cc1cnc(NCc2ccccc2Cl)nc1NC[C@]12CC3C[C@H](C1)[C@@H](NC[C@H]1CC[C@H](O)CC1)[C@@H](C3)C2 (relative stereo) [Example 340] | –
9 | 0.65 | 84 | 89 | N#Cc1cnc(NCc2ccccc2Cl)nc1NC[C@]12CC3C[C@H](C1)[C@@H](NC[C@H]1CC[C@@H](O)CC1)[C@@H](C3)C2 (relative stereo) [Example 401] | –
10 | 0.065 | 75 | 88 | N#Cc1cnc(NCc2ccccc2OC(F)(F)F)nc1NC[C@]12CC3C[C@H](C1)[C@@H](N[C@H]1CC[C@@H](N)CC1)[C@@H](C3)C2 [Example 303] | –
11 | 3.3 | 88 | 82 | COc1ccccc1CNc1ncc(C#N)c(NC[C@]23CC4C[C@H](C2)[C@@H](NCC[C@H](O)CO)[C@@H](C4)C3)n1 (relative stereo) [Example 195] | –
12 | 0.48 | 89 | 84 | CSc1ncccc1CNc1ncc(C#N)c(NC[C@]23CC4C[C@H](C2)[C@@H](NC[C@H]2CC[C@H](O)CC2)[C@@H](C4)C3)n1 (relative stereo) [Example 344] | –
13 | 14 | 80 | 102 | N#Cc1cnc(NCc2ccccc2OC(F)(F)F)nc1NC[C@]12CC3C[C@H](C1)[C@H](N[C@H]1CC[C@H](O)CC1)[C@@H](C3)C2 (relative stereo) [Example 41, rel-4-[({(1R,3S,4R,5R)-4-[(trans-4-hydroxycyclohexyl)amino]adamantan-1-yl}methyl)amino]-2-{[2-(trifluoromethoxy)benzyl]amino}pyrimidine-5-carbonitrile] | –

Row | Compound | IC50 (Full-length human PKCθ; [1]) [nM] | I (%) Remaining Rate I (Cytochrome P450 (CYP3A4)) [%] | II (%) Remaining Rate II (Cytochrome P450 (CYP3A4)) [%] | IC50 (Full-length human PKCθ) [nM]
14 | N#Cc1cnc(NCc2ccccc2Cl)nc1NC[C@]12CC3C[C@H](C1)[C@@H](NCC1CCN(CCF)CC1)[C@@H](C3)C2 [Example 219] | – | 76 | 94 | 0.4

Reference: patent US20110159019A1, “2,4-DIAMINOPYRIMIDINE COMPOUND” (priority 2008, published 2011)
